Assay results taken from the NIST ThermoML archive (doi:10.1021/je200683f).

Conditions: Liquid, Transpiration method

NC=O [formamide]
Conditions	vapor or sublimation pressure [kPa]
303.4 K	0.0143
308.2 K	0.0201
313.2 K	0.0305
318.2 K	0.0455
323.2 K	0.0636
328.2 K	0.0915
333.2 K	0.1243
338.2 K	0.1674
343.2 K	0.2297
348.2 K	0.3121
353.3 K	0.4543
358.2 K	0.5468
363.2 K	0.7803
368.1 K	0.9855
373.2 K	1.271
376 K	1.476
